# Results from US4544512A, “Tridecyloxy- or tetradecyloxy-propane derivatives” (Takeda Chemical Industries, Ltd., priority 1980, dated 1985).
# Where two headings read alike, the source gives them in different places.
# Tests used:
# Format in all cases: cell-based
# Gibberella fujikuroi = assay: Antifungal activity, serial dilution method (MIC); settings: Fusarium fujikuroi, read-out: MIC Gibberella fujikuroi (rice Bakanae-disease)
# [1] = system: Colletotrichum lagenarium; assay: Antifungal activity, serial dilution method (MIC); settings: Colletotrichum orbiculare, read-out: MIC Colletotrichum lagenarium (cucumber anthracnose)
# Botrytis cinerea = assay: Antifungal activity, serial dilution method (MIC); settings: read-out: MIC Botrytis cinerea (gray mold)
# Leptosphaeria salvinii = assay: Antifungal activity, serial dilution method (MIC); settings: Nakataea oryzae, read-out: MIC Leptosphaeria salvinii (rice stem rot)
# Alternaria solani = assay: Antifungal activity, serial dilution method (MIC); settings: 1% glucose-bouillon agar medium, read-out: MIC Alternaria solani (potato early blight)
# Pyricularia oryzae = assay: microbe, parasite or virus in culture; settings: read-out: MIC Pyricularia oryzae (rice blast)
# Cochliobolus miyabeanus = assay: Antifungal activity, serial dilution method (MIC); settings: Bipolaris oryzae, read-out: MIC Cochliobolus miyabeanus (rice Helminthosporium leaf spot)
# [2] = system: Trichophyton mentagrophytes IFO (DT-66); assay: Antitrichophyton activity, serial dilution method (MIC); settings: Sabouraud's agar medium
# Method: (§1) Referring to the antitrichophyton activity shown in Table 7, MIC values of tested compounds were determined by the serial dilution method using Sabouraud's agar medium.
# [3] = system: Trichophyton rubrum IFO 5467 (DT-63); assay: as above; settings: IFO5467, Sabouraud's agar medium
# Method: as §1
# [4] = system: mouse myeloid leukemia M1 cells; assay: Induced differentiation of mouse myeloid leukemia M1 cells; settings: at optimal dose: C00019 1 μg/ml, drawing 20 2 μg/ml; for Phagocytic cells: None 2.0 %; for Morphological change: None 2.1 %; for Lysozyme activity: None 2.2
# Method: By employing soft-agar medium having similar components to those in Test Example 1, incubation of myeloid leukemia (M1) cells harvested from mice was conducted in the presence of the test compound in its optimal concentration. Observation on various biological and biochemical properties caused by induced differentiation was conducted. In Table 2 are given the results obtained by determination of the degree of the induced differentiation employing, as the indexes, among those properties, morphological changes (matured granulocytes, matured macrophages, others caused by changes in appearance of cells at the stage of differentiation),phagocytic activity (plastic small pieces.phagocytosis) and lysozyme activity. Additionally stating, these morphological changes were not observed under the conditions devoid of the drugs.
# [5] = system: human promyelocytic leukemia HL-60 cells; assay: Induced differentiation of human promyelocytic leukemia HL-60 cells; settings: six day incubation; optimal dose: C00021 1 μg/ml, drawing 22 4 μg/ml
# Method: By employing soft-agar medium, incubation of human promyelocytic leukemia HL-60 cells was conducted in the presence of a drug at its optimal concentration. It was observed that the leukemia HL-60 cells were gradually changing into mature myeloid cells or phagocytic cells as the induced differentiation proceeded. After six day incubation, number of these cells was counted, and the respective ratios (%) relative to the total number of these cells were calculated, as shown in Table 3. Additionally stating, these changes were not observed under the conditions devoid of the drugs.
# Tetrahymena pyriformis W = assay: Antiprotozoal activity, broth dilution method (MIC); settings: 28° C., 44-48 hours, read-out: MIC against Tetrahymena pyriformis W
# Method: Referring to the antiprotozoal activity given in Table 4, the microbial growth inhibiting activity (MIC) of each compound of this invention was assayed by the broth dilution method by incubating Tetrahymena pyriformis W strain as the test organism at 28° C. for 44-48 hours, using a test culture medium comprising 20 g of Tryptose peptine (Difco), 1 g of yeast extract, 2 g of glucose. 1,000 ml of distilled water and 10 ml of 1M phosphate buffer (pH 7.0).
# [6] = system: Cryptococcus unigtullatas; assay: Antimycotic activity, paper disk inhibition zone; settings: 48 h, concentration of 3 mg/ml, paper disk 8 mm, 37° C., 2 days, read-out: Inhibition zone diameters
# Method: Referring to the antimycotic activity presented in Table 5, Cryptococcus unigtullatas and others were used as the test microbes, a paper disk (8 mm in diameter) was immersed in an aqueous solution of each test compound having a concentration of 3 mg/ml, air dried and placed on an agar medium, then incubation was conducted at 37° C. for 2 days, and the diameter (mm) of the inhibition zone was measured.
# [7] = 1% glucose-bouillon agar medium
structure (smiles),measurement,setting,value
"CCCCCCCCCCCCOCC(COP(=O)([O-])OCC[N+](C)(C)C)OC (stereo not drawn) [Compound (A) R = C12 H25, reference compound]",MIC,Gibberella fujikuroi; [7],> 100 µg/mL
same,MIC,[1]; [7],12.5 µg/mL
same,MIC,Botrytis cinerea; [7],50 µg/mL
same,MIC,Leptosphaeria salvinii; [7],25 µg/mL
same,MIC,Alternaria solani,50 µg/mL
same,MIC,Pyricularia oryzae,25 µg/mL
same,MIC,Cochliobolus miyabeanus,> 100 µg/mL
CCCCCCCCCCCCCOCC(COP(=O)([O-])OCC[N+](C)(C)C)OC (stereo not drawn) [Compound (A) R = C13 H27],MIC,Gibberella fujikuroi; [7],> 100 µg/mL
same,MIC,[1]; [7],6.25 µg/mL
same,MIC,Botrytis cinerea,12.5 µg/mL
same,MIC,Leptosphaeria salvinii; [7],6.25 µg/mL
same,MIC,Alternaria solani,50 µg/mL
same,MIC,Pyricularia oryzae,12.5 µg/mL
same,MIC,Cochliobolus miyabeanus,> 100 µg/mL
CCCCCCCCCCCCCCOCC(COP(=O)([O-])OCC[N+](C)(C)C)OC (stereo not drawn) [Compound (A) R = C14 H29],MIC,Gibberella fujikuroi; [7],25 µg/mL
same,MIC,[1]; [7],25 µg/mL
same,MIC,Botrytis cinerea; [7],6.25 µg/mL
same,MIC,Leptosphaeria salvinii,3.12 µg/mL
same,MIC,Alternaria solani,100 µg/mL
same,MIC,Pyricularia oryzae,3.12 µg/mL
same,MIC,Cochliobolus miyabeanus,12.5 µg/mL
"CCCCCCCCCCCCCCCCCCOCC(COP(=O)([O-])OCC[N+](C)(C)C)OC (stereo not drawn) [Compound (A) R = C18 H37, reference compound]",MIC,Gibberella fujikuroi; [7],> 100 µg/mL
same,MIC,[1]; [7],> 100 µg/mL
same,MIC,Botrytis cinerea; [7],25 µg/mL
same,MIC,Leptosphaeria salvinii; [7],12.5 µg/mL
same,MIC,Alternaria solani,> 100 µg/mL
same,MIC,Pyricularia oryzae,6.25 µg/mL
same,MIC,Cochliobolus miyabeanus,> 100 µg/mL
"CCCCCCCCCCCCOCCCOP(=O)([O-])OCC[N+](C)(C)C [Compound (B) R = C12 H25, reference compound]",MIC,Gibberella fujikuroi; [7],100 µg/mL
same,MIC,[1],6.25 µg/mL
same,MIC,Botrytis cinerea; [7],25 µg/mL
same,MIC,Leptosphaeria salvinii; [7],25 µg/mL
same,MIC,Alternaria solani,50 µg/mL
same,MIC,Pyricularia oryzae,12.5 µg/mL
same,MIC,Cochliobolus miyabeanus,6.25 µg/mL
CCCCCCCCCCCCCOCCCOP(=O)([O-])OCC[N+](C)(C)C [Compound (B) R = C13 H27],MIC,Gibberella fujikuroi; [7],25 µg/mL
same,MIC,[1]; [7],1.56 µg/mL
same,MIC,Botrytis cinerea,6.25 µg/mL
same,MIC,Leptosphaeria salvinii; [7],12.5 µg/mL
same,MIC,Alternaria solani,25 µg/mL
same,MIC,Pyricularia oryzae,6.25 µg/mL
same,MIC,Cochliobolus miyabeanus,6.25 µg/mL
CCCCCCCCCCCCCCOCCCOP(=O)([O-])OCC[N+](C)(C)C [Compound (B) R = C14 H29],MIC,Gibberella fujikuroi,12.5 µg/mL
same,MIC,[1],6.25 µg/mL
same,MIC,Botrytis cinerea,6.25 µg/mL
same,MIC,Leptosphaeria salvinii,6.25 µg/mL
same,MIC,Alternaria solani,50 µg/mL
same,MIC,Pyricularia oryzae,6.25 µg/mL
same,MIC,Cochliobolus miyabeanus,12.5 µg/mL
"CCCCCCCCCCCCCCCCCCOCCCOP(=O)([O-])OCC[N+](C)(C)C [Compound (B) R = C18 H37, reference compound]",MIC,Gibberella fujikuroi; [7],> 100 µg/mL
same,MIC,[1]; [7],> 100 µg/mL
same,MIC,Botrytis cinerea; [7],25 µg/mL
same,MIC,Leptosphaeria salvinii; [7],50 µg/mL
same,MIC,Alternaria solani,> 100 µg/mL
same,MIC,Pyricularia oryzae,12.5 µg/mL
same,MIC,Cochliobolus miyabeanus,> 100 µg/mL
"CCCCCCCCCCCCOCC(COP(=O)([O-])OCC[N+](C)(C)C)OC (stereo not drawn) [R = C12 H25, A = drawing 32, reference compound]",MIC,[2],25 µg/mL
same,MIC,[3],6.25 µg/mL
"CCCCCCCCCCCCCOCC(COP(=O)([O-])OCC[N+](C)(C)C)OC (stereo not drawn) [R = C13 H27, A = drawing 33]",MIC,[2],6.25 µg/mL
same,MIC,[3],3.12 µg/mL
"CCCCCCCCCCCCCOCC(COP(=O)([O-])OCC[n+]1ccccc1)OC (stereo not drawn) [R = C13 H27, A = drawing 34]",MIC,[2],12.5 µg/mL
same,MIC,[3],3.12 µg/mL
"CCCCCCCCCCCCCCOCC(COP(=O)([O-])OCC[N+](C)(C)C)OC (stereo not drawn) [R = C14 H29, A = drawing 35]",MIC,[2],3.12 µg/mL
same,MIC,[3],1.56 µg/mL
"CCCCCCCCCCCCCCOCC(COP(=O)([O-])OCC[n+]1ccccc1)OC (stereo not drawn) [R = C14 H29, A = drawing 36]",MIC,[2],3.12 µg/mL
same,MIC,[3],1.56 µg/mL
"CCCCCCCCCCCCCCCCCCOCC(COP(=O)([O-])OCC[N+](C)(C)C)OC (stereo not drawn) [drawing 19, reference compound]",Phagocytic cells,[4],13.4%
same,Morphological change,[4],34.7%
same,Lysozyme activity,[4],31.1 units/mg protein
CCCCCCCCCCCCCCOCC(COP(=O)([O-])OCC[N+](C)(C)C)OC (stereo not drawn) [drawing 20],Phagocytic cells,[4],25.9%
same,Morphological change,[4],53.4%
same,Lysozyme activity,[4],80.1 units/mg protein
"CCCCCCCCCCCCCCCCCCOCC(COP(=O)([O-])OCC[N+](C)(C)C)OC (stereo not drawn) [drawing 21, reference compound]",Mature myeloid cells,[5],43.0%
same,NBT (nitro blue tetrazolium) reduction,[5],47.8%
same,Phagocytic cells,[5],39.8%
CCCCCCCCCCCCCCOCC(COP(=O)([O-])OCC[N+](C)(C)C)OC (stereo not drawn) [drawing 22],Mature myeloid cells,[5],91.3%
same,NBT (nitro blue tetrazolium) reduction,[5],87.0%
same,Phagocytic cells,[5],68.2%
CCCCCCCCCCCCOCC(COP(=O)([O-])OCC[N+](C)(C)C)OC (stereo not drawn) [drawing 23 R = C12 H25],MIC,Tetrahymena pyriformis W,0.4 µg/mL
CCCCCCCCCCCCCCOCC(COP(=O)([O-])OCC[N+](C)(C)C)OC (stereo not drawn) [drawing 23 R = C14 H29],MIC,Tetrahymena pyriformis W,0.2 µg/mL
CCCCCCCCCCCCCCCCCCOCC(COP(=O)([O-])OCC[N+](C)(C)C)OC (stereo not drawn) [drawing 23 R = C18 H37],MIC,Tetrahymena pyriformis W,1 µg/mL
CCCCCCCCCCCCCCOCC(COP(=O)(O)OCCN)OC (stereo not drawn) [drawing 24 R = C14 H29],MIC,Tetrahymena pyriformis W,2 µg/mL
CCCCCCCCCCCCCCCCCCOCC(COP(=O)(O)OCCN)OC (stereo not drawn) [drawing 24 R = C18 H37],MIC,Tetrahymena pyriformis W,4 µg/mL
CCCCCCCCCCCCOCCCOP(=O)([O-])OCC[N+](C)(C)C [drawing 25 R = C12 H25],MIC,Tetrahymena pyriformis W,1 µg/mL
CCCCCCCCCCCCCOCCCOP(=O)([O-])OCC[N+](C)(C)C [drawing 25 R = C13 H27],MIC,Tetrahymena pyriformis W,0.2 µg/mL
CCCCCCCCCCCCCCOCCCOP(=O)([O-])OCC[N+](C)(C)C [drawing 25 R = C14 H29],MIC,Tetrahymena pyriformis W,0.2 µg/mL
CCCCCCCCCCCCCCCCCCOCCCOP(=O)([O-])OCC[N+](C)(C)C [drawing 25 R = C18 H37],MIC,Tetrahymena pyriformis W,2 to 4 µg/mL
CCCCCCCCCCCCOCCCOP(=O)(O)OCCN [drawing 26 R = C12 H25],MIC,Tetrahymena pyriformis W,2 µg/mL
CCCCCCCCCCCCCOCCCOP(=O)(O)OCCN [drawing 26 R = C13 H27],MIC,Tetrahymena pyriformis W,0.4 µg/mL
CCCCCCCCCCCCCCOCCCOP(=O)(O)OCCN [drawing 26 R = C14 H29],MIC,Tetrahymena pyriformis W,0.4 µg/mL
CCCCCCCCCCCCCCCCCCOCCCOP(=O)(O)OCCN [drawing 26 R = C18 H37],MIC,Tetrahymena pyriformis W,4 µg/mL
CCCCCCCCCCCCOCC(COP(=O)([O-])OCC[N+](C)(C)C)OC (stereo not drawn) [drawing 27 R = C12 H25],zone of inhibition at 3000 µg/mL,[6],15 mm
CCCCCCCCCCCCCOCC(COP(=O)([O-])OCC[N+](C)(C)C)OC (stereo not drawn) [drawing 27 R = C13 H27],zone of inhibition at 3000 µg/mL,[6],19 mm
CCCCCCCCCCCCCCOCC(COP(=O)([O-])OCC[N+](C)(C)C)OC (stereo not drawn) [drawing 27 R = C14 H29],zone of inhibition at 3000 µg/mL,[6],22 mm
CCCCCCCCCCCCCCCCCCOCC(COP(=O)([O-])OCC[N+](C)(C)C)OC (stereo not drawn) [drawing 27 R = C18 H37],zone of inhibition at 3000 µg/mL,[6],18 mm
CCCCCCCCCCCCOCC(COP(=O)(O)OCCN)OC (stereo not drawn) [drawing 28 R = C12 H25],zone of inhibition at 3000 µg/mL,[6],< 5 mm
CCCCCCCCCCCCCCOCC(COP(=O)(O)OCCN)OC (stereo not drawn) [drawing 28 R = C14 H29],zone of inhibition at 3000 µg/mL,[6],13.5 mm
CCCCCCCCCCCCCCCCCCOCC(COP(=O)(O)OCCN)OC (stereo not drawn) [drawing 28 R = C18 H37],zone of inhibition at 3000 µg/mL,[6],< 5 mm
CCCCCCCCCCCCOCCCOP(=O)([O-])OCC[N+](C)(C)C [drawing 29 R = C12 H25],zone of inhibition at 3000 µg/mL,[6],19 mm
CCCCCCCCCCCCCOCCCOP(=O)([O-])OCC[N+](C)(C)C [drawing 29 R = C13 H27],zone of inhibition at 3000 µg/mL,[6],20 mm
CCCCCCCCCCCCCCOCCCOP(=O)([O-])OCC[N+](C)(C)C [drawing 29 R = C14 H29],zone of inhibition at 3000 µg/mL,[6],21 mm
CCCCCCCCCCCCCCCCCCOCCCOP(=O)([O-])OCC[N+](C)(C)C [drawing 29 R = C18 H37],zone of inhibition at 3000 µg/mL,[6],17 mm
